These results are taken from patent US20260167622A1, “PAN-KRAS DEGRADING AGENT, AND PREPARATION METHOD THEREFOR AND USE THEREOF” (LEADINGTAC PHARMACEUTICAL (SHAOXING) CO., LTD., priority 2022, published 2026).

Common to all, as to assay type: cell-based
Experiment [1] addresses T1, KRAS G12D protein in AsPc-1 cells (Homo sapiens, UniProt P01116, G12D).
T1 construct: endogenous in cells; host or cells: AsPc-1
The experiment in a line: KRAS degradation assay (Western Blot) in AsPc-1 cells. Particulars: for DC50: 24 h; for Dmax: ASPC1, 24 h. The text has this: (§1) Test Example 5: KRAS G12C, KRAS G12D, KRAS G12V, KRAS G13D, and KRAS WT (Expanded) Degradation Assays
(§2) The degradation effect of the compounds on KRAS was investigated on KRAS G12C mutant human non-small cell lung cancer cell NCI-H358, KRAS G12D mutant human metastatic pancreatic cancer cell AsPc-1, KRAS G12D mutant human lung cancer cell A427, KRAS G12V mutant human colorectal cancer cell SW620, KRAS G12V mutant human lung cancer cell SW900, KRAS G13D mutant human colorectal cancer epithelial cell DLD-1, and KRAS WT human gastric cancer cell MKN-1. The specific procedures were as follows: 0.95 mL of cells were seeded into each well of a 24-well cell culture plate to achieve a cell density of 5×10^5 cells/well; and the cell plate was incubated in an incubator at 37° C. with 5% CO2 overnight. Then 50 μL of the compound solution after dilution was added to each of the wells with the corresponding cells, so that the final concentration of the compound was in a range of 0.03-3000 nM. The final concentration of DMSO was 0.25%. After the compounds were added, the cell plate was incubated in an incubator at 37° C. with 5% CO2 for 24 h. The culture medium in the 24-well cell culture plate was then removed, and the plate was washed twice with 1×PBS (KeyGEN). 120 μL of RIPA (strong) lysis buffer (Beyotime) (supplemented with 1 mM phenylmethylsulfonyl fluoride, a protease inhibitor mixture (Beyotime), and a protease phosphatase inhibitor mixture (Beyotime)) was added to lyse adherent SW900 cells at the bottom of the cell culture plate. After the plate was left to stand on ice for 30 min, the protein lysate in each well was transferred to a 1.5 mL centrifuge tube and centrifuged at 15000 g for 20 min at 4° C. The cell lysate supernatants after centrifugation were cryopreserved in a refrigerator at −80° C. for later use.
(§3) After the samples of the cell lysate supernatants that had been prepared were thawed from the refrigerator at −80° C., the total protein concentrations of the cell lysates were determined using a BCA protein quantification kit (Tiangen). The total protein concentrations of the samples were then adjusted to 0.5 μg/μL with PBS and 5×SDS-PAGE protein loading buffer (Beyotime), and the samples were incubated in a water bath at 100° C. for 15 min. The samples were then incubated in an ice bath for 5 min and centrifuged at 14000 g for 1 min at 4° C., and the supernatants were mixed well as loading samples for the Western Blot assay. The samples were loaded into wells of a 10% precast gel (KeyGEN) with a loading volume of 10 μL (total protein: 5 μg), a sufficient Tris-MOPS-SDS running buffer (Adamas) was added, and then electrophoresis was performed at a constant voltage of 120 V for 55 min. After the electrophoresis, the proteins on the gel were transferred to PVDF membranes at a constant current of 250 mA for 55 min. After the membrane transfer, the PVDF membranes were incubated in 1× Quick Block blocking buffer (Beyotime)at room temperature for 30 min. After the blocking, the PVDF membranes were separately incubated at 4° C. overnight with the KRAS antibody (Abcam) diluted in a ratio of 1:1000 and the β-actin antibody (Abcam) diluted in a ratio of 1:2000 in 5% BSA as the diluent, and then washed with 1×TBST buffer (2.4 g of Tris, 8.8 g of NaCl, 1.5 mL of Tween 20, with pH adjusted to 7.4, with the volume brought to 1 L) 3 times for 10 min/time. The membranes were incubated with a secondary antibody (Abcam) diluted in 5% BSA at room temperature for 2 h, and then washed with 1×TBST buffer 3 times for 10 min/time. Finally, the membranes were incubated with Clarity Western ECL Substrate (BIO-RAD) for 5 min for luminescence and color development, and a ChemiScope 6200 Touch chemiluminescence imaging system (Clinx) was used for color development and protein mapping. Gray value analysis of the protein maps was performed using the chemiluminescence analysis software (Clinx). […]

In experiment [2] the target is T2, KRAS G12V protein in SW900 cells (Homo sapiens, UniProt P01116, G12V).
T2 construct: endogenous in cells; host or cells: SW900
T2 sequence (P01116 1-188 isoform P01116-2 G12V): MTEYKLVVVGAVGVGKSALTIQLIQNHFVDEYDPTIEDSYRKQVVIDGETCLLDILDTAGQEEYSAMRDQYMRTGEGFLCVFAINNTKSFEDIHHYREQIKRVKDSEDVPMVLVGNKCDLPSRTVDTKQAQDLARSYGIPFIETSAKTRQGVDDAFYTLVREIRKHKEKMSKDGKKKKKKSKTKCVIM
The experiment in a line: KRAS degradation assay (Western Blot) in SW900 cells. Particulars: 24 h. A digest of the protocol:
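DC50 and Dmax were fitted from KRAS band intensity, corrected to β-actin and expressed against untreated control, after Western blotting of 5 μg lysate protein. Cells were exposed for 24 h at 37 °C to 0.03-3000 nM compound (final) with 0.25% DMSO.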
For orientation: In western blotting, separated proteins are transferred to a membrane and probed.

Experiment [3] relates to KRAS G12C mutant human non-small cell lung cancer cell NCI-H358. The experiment is described as follows: 3D cell proliferation inhibition assay, NCI-H358. Particulars: NCI-H358, 168 h, 3D culture, 7 days, CTG. A digest of the protocol: (§4)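 Cells were seeded in low-adsorption 96-well plates at 5×10^2 cells/well (MKN1 at 1×10^3) with compounds at final 10000-0.026 nM, 0.2% DMSO, and grown 7 days at 37° C. CTG luminescence gave inhibition relative to DMSO and medium-only controls, and IC50 came from a log-concentration curve fit.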

Experiment [4] deals with KRAS G13D mutant human colorectal cancer epithelial cell DLD-1. The experiment in a line: 3D cell proliferation inhibition assay, DLD-1. Particulars: DLD-1, 168 h, 3D culture, 7 days, CTG. A digest of the protocol:
as §4

Experiment [5] deals with KRAS G12V mutant human colorectal cancer cell SW620. The experiment is described as follows: 3D cell proliferation inhibition assay, SW620. As to conditions: SW-620, 168 h, 3D culture, 7 days, CTG. A digest of the protocol: as §4
Experiment [6] deals with KRAS WT human gastric cancer cell MKN1. The experiment in a line: 3D cell proliferation inhibition assay, MKN1. Particulars: MKN-1, 168 h, 3D culture, 7 days, CTG. The gist of the method:
as §4

Experiment [7] relates to KRAS G12D mutant human metastatic pancreatic cancer cell AsPc-1. The experiment in a line: 3D cell proliferation inhibition assay, AsPc-1. Particulars: ASPC1, 168 h, 3D culture, 7 days, CTG. The gist of the method:
as §4

The test system of experiment [8] is KRAS G12D mutant human lung cancer cell A427. The experiment in a line: 3D cell proliferation inhibition assay, A427. As to conditions: A-427, 168 h, 3D culture, 7 days, CTG. The gist of the method: as §4
The target in experiment [9] is T3, KRAS G13D protein in DLD-1 cells (Homo sapiens, UniProt P01116, G13D).
T3 construct: endogenous in cells; host or cells: DLD-1
T3 sequence (P01116 1-188 isoform P01116-2 G13D): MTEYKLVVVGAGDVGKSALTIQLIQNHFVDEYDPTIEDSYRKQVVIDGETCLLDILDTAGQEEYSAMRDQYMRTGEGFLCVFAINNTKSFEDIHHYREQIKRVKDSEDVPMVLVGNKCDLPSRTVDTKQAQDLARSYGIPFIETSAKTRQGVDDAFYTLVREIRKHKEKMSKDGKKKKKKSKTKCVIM
The experiment in a line: KRAS degradation assay (Western Blot) in DLD-1 cells. As to conditions: 24 h.
Source text: as §1, §2, §3

Experiment [10] deals with KRAS G12V mutant human lung squamous carcinoma cell SW900. The experiment is described as follows: 3D cell proliferation inhibition assay, SW900. Particulars: SW900, 168 h, 3D culture, 7 days, CTG.
Experiment [11] deals with KRAS G12D mutant human gastric cancer cell AGS. The experiment is described as follows: 3D cell proliferation inhibition assay, AGS. Particulars: 168 h, 3D culture, 7 days, CTG. A digest of the protocol:
as §4

Experiment [12] concerns the target T4, KRAS G12V protein in SW620 cells (Homo sapiens, UniProt P01116, G12V).
T4 construct: endogenous in cells; host or cells: SW620
The experiment is described as follows: KRAS degradation assay (Western Blot) in SW620 cells. The gist of the method: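 Compounds were added at final concentrations of 0.03–3000 nM (0.25% DMSO) to overnight-plated cells and left for 24 h. Lysates, equalised by BCA, were immunoblotted for KRAS and β-actin, and DC50 and Dmax were derived from normalised band intensities relative to control.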

Some results are limits rather than exact numbers.

T1 sequence (P01116 1-188 isoform P01116-2 G12D): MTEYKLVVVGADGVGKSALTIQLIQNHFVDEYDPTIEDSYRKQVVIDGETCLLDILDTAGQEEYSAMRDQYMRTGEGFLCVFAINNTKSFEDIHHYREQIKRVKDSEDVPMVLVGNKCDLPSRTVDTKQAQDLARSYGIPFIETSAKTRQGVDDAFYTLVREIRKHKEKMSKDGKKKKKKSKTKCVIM
T4 sequence (P01116 1-188 isoform P01116-2 G12V): as the sequence (P01116 1-188 isoform P01116-2 G12V) above

The DC50 is the midpoint of the concentration-degradation curve. High values mean a less potent degrader, low ones a more potent degrader. The term Dmax denotes the greatest extent of degradation seen. Higher therefore signals a fuller loss of target. In general, IC50 refers to the midpoint of a concentration-inhibition curve. `C#Cc1cccc2cc(O)cc(-c3ncc4c(N5CCCOCC5)nc(OCC5(CN6CCN(CC7CCC8(CC7)CCN(C(=O)c7ccc(OC)c(N9CCC(=O)NC9=O)c7)CC8)CC6)CC5)nc4c3F)c12` [Example 39, 1-(5-(9-((4-((1-(((7-(8-ethynyl-3-hydroxynaphthalen-1-yl)-8-fluoro-4-(1,4-oxazepan-4-yl)pyrido[4,3-d]pyrimidin-2-yl)oxy)methyl)cyclopropyl)methyl)piperazin-1-yl)methyl)-3-azaspiro[5.5]undecane-3-carbonyl)-2-methoxyphenyl)dihydropyrimidine-2,4(1H,3H)-dione]: the DC50 in experiment [1] and in experiment [2] was at most 50 nM each time. Besides, the Dmax in experiment [1] was 50 to 80%; in experiment [2] it was 80 to 100%. Moreover, the IC50 in [3] stood at 11.6 nM; in experiment [4] it was 86.6 nM; in experiment [5] it was 35.6 nM.
For the compound `CCc1c(F)ccc2cc(O)cc(-c3ncc4c(N5CCC[C@@](C)(O)C5)nc(OCC5(CN6CCN(CC7CCC8(CC7)CCN(C(=O)c7ccc(OC)c(N9CCC(=O)NC9=O)c7)CC8)CC6)CC5)nc4c3F)c12` [Example 42, (R)-1-(5-(9-((4-((1-(((7-(8-ethyl-7-fluoro-3-hydroxynaphthalen-1-yl)-8-fluoro-4-(3-hydroxy-3-methylpiperidin-1-yl)pyrido[4,3-d]pyrimidin-2-yl)oxy)methyl)cyclopropyl)methyl)piperazin-1-yl)methyl)-3-azaspiro[5.5]undecane-3-carbonyl)-2-methoxyphenyl)dihydropyrimidine-2,4(1H,3H)-dione], the DC50 in [2] and in [9] was at most 50 nM in each case. Moreover, the Dmax in [2] and in experiment [9] was 80 to 100% in each case. The half-inhibitory concentration (IC50) in experiment [3] is at most 50 nM; in experiment [6], at most 50 nM; in experiment [7], at most 50 nM; in experiment [8], 100 to 500 nM; in experiment [10] it was at most 50 nM; in experiment [4], at most 50 nM. Further, the IC50 was 2.15 nM in [5] and at most 50 nM in experiment [11].
As for `CCc1cccc2cc(O)cc(-c3ccc4c(N5CCC[C@@](C)(O)C5)nc(OCC5(CN6CCN(CC7CCC8(CC7)CCN(C(=O)c7ccc(C)c(N9CCC(=O)NC9=O)c7)CC8)CC6)CC5)nc4c3F)c12` [Example 49, (R)-1-(5-(9-((4-((1-(((7-(8-ethyl-3-hydroxynaphthalen-1-yl)-8-fluoro-4-(3-hydroxy-3-methylpiperidin-1-yl)quinazolin-2-yl)oxy)methyl)cyclopropyl)methyl)piperazin-1-yl)methyl)-3-azaspiro[5.5]undecane-3-carbonyl)-2-methylphenyl)dihydropyrimidine-2,4(1H,3H)-dione], the 50% degradation concentration (DC50) in experiment [1] was 822 nM; in experiment [2], 62.9 nM. In addition, the Dmax is 57% in experiment [1] and 75.3% in experiment [2]. Also, the IC50 in experiment [3] turned out to be 67.4 nM; in experiment [6], 39.2 nM; in experiment [10] it was 527 nM; in [4], 46.1 nM; in experiment [5], 27.4 nM.
On to `C#Cc1c(F)ccc2cc(O)cc(-c3ncc4c(N5CCCC(C)(N)C5)nc(OCC5(CN6CCN(CC7CCC8(CC7)CCN(C(=O)c7ccc(OC)c(N9CCC(=O)NC9=O)c7)CC8)CC6)CC5)nc4c3F)c12` (centres unmarked) [Example 163, 1-(5-(9-((4-((1-(((4-(3-amino-3-methylpiperidin-1-yl)-7-(8-ethynyl-7-fluoro-3-hydroxynaphthalen-1-yl)-8-fluoropyrido[4,3-d]pyrimidin-2-yl)oxy)methyl)cyclopropyl)methyl)piperazin-1-yl)methyl)-3-azaspiro[5.5]undecane-3-carbonyl)-2-methoxyphenyl)dihydropyrimidine-2,4(1H,3H)-dione], for which the DC50 in experiment [1] came to 185 nM; in experiment [2], 251 nM. In addition, the Dmax in experiment [1] stood at 89%; in [2], 71%. Further, the IC50 in experiment [3] came out at 420 nM; in experiment [6], 367 nM; in [7] it was 368 nM; in experiment [8], 564 nM; in experiment [10], 235 nM; in experiment [5] it was 285 nM. The compound further displayed an IC50 in [11] of 588 nM.
With `C#Cc1c(F)ccc2cc(O)cc(-c3ncc4c(N5CCOCC(C)(O)C5)nc(OCC5(CN6CCN(CC7CCC8(CC7)CCN(C(=O)c7ccc(OC)c(N9CCC(=O)NC9=O)c7)CC8)CC6)CC5)nc4c3F)c12` (centres unmarked) [Example 165, 1-(5-(9-((4-((1-(((7-(8-ethynyl-7-fluoro-3-hydroxynaphthalen-1-yl)-8-fluoro-4-(6-hydroxy-6-methyl-1,4-oxazepan-4-yl)pyrido[4,3-d]pyrimidin-2-yl)oxy)methyl)cyclopropyl)methyl)piperazin-1-yl)methyl)-3-azaspiro[5.5]undecane-3-carbonyl)-2-methoxyphenyl)dihydropyrimidine-2,4(1H,3H)-dione], the DC50 in [1] is 13.4 nM; in experiment [2], 5.9 nM; in experiment [12] (24 h), 7.6 nM. The Dmax came out at 100% in experiment [1]; 100% in [2]; 100% in [12] (SW-620, 24 h). Also, the IC50 in experiment [3] stood at 7.23 nM; in experiment [6] it was 52.5 nM; in [7], 18.6 nM; in experiment [8], 108 nM; in [10], 15.6 nM; in experiment [4], 18.9 nM. Moreover, the IC50 in [5] was 4.58 nM; in experiment [11] it was 27.8 nM.
